Assay results from patent US9591978B2, “Methods and compositions for pre-screening patients for treatment with noribogaine” (DemeRX, Inc., priority 2014, dated 2017).
“Also recorded” adds a separate entry of the source.

Columns and labels:
[1] = Pharmacokinetics in opioid-dependent patients (Phase IB study); conditions: 60-180 mg
[2] = system: healthy, drug-free male volunteers; assay: Pupillometry (pupillary miosis) in healthy volunteers; assay type: in vivo, human
Description: (§1) Pulse oximetry and capnography data were collected continuously using a GE Carescape B650 monitoring system from 2 hours prior to dosing and until six hours after dosing, and thereafter at 12, 24, 48 and 72 hours post-dosing. […] Pupillary miosis was assessed by pupillometry.
Summary statistics (means, standard deviations, and coefficients of variation) were determined for each dose group for safety laboratory test data, ECG and pharmacokinetic parameters, and pharmacodynamic variables. Categorical variables were analysed using counts and percentages. Dose-proportionality of AUC and Cmax was assessed using linear regression. The effect of dose on pharmacodynamic parameter values over time was assessed using two-factor analysis of variance (ANOVA). Pairwise comparisons (with Tukey-Kramer adjustment) between each dose group to the placebo were conducted at each time point using the least squares estimates obtained from the ANOVA, using SAS Proc Mixed (SAS ver 6.0).

[3] = system: healthy, drug-free male volunteers; assay: Safety and tolerability of noribogaine in healthy humans; assay type: in vivo, human
Description: as §1
(§2) Safety and tolerability of noribogaine were tested in the group of volunteers from Example 1. […] Safety evaluations included clinical monitoring, recording of adverse events (AEs), safety laboratory tests, vital signs, ECG telemetry from −2 h to 6 h after dosing, and 12-lead electrocardiograms (ECGs) up to 216 hours post-dosing.

[4] = system: opioid-dependent participants; assay: Time to resumption of opioid substitution treatment (OST); assay type: in vivo, human; conditions: for therapeutic response: methadone addicted patients
[5] = Pharmacokinetics of noribogaine in healthy volunteers (plasma, LCMSMS); conditions: for CL/F: healthy male volunteers, fasted, n = 6, mean (SD); for mean AUC/24 hr / mean AUC/24: fasting conditions
[6] = system: opioid-dependent participants; assay: Treatment emergent adverse events in opioid-dependent participants
[7] = system: opioid-dependent participants; assay: QT interval prolongation in opioid-dependent patients; assay type: in vivo, human
Description: Patients' QT intervals were evaluated at regular time points throughout the study.

[8] = system: opioid-dependent participants; assay: Opiate withdrawal scales (COWS, SOWS, OOWS); assay type: in vivo, human; conditions: first six hours following dosing
Description: Patients were evaluated based on the Clinical Opiate Withdrawal Scale (COWS), Subjective Opiate Withdrawal Scale (SOWS), and Objective Opiate Withdrawal Scale (OOWS) scoring systems over the period of time between administration of noribogaine (or placebo) until resumption of OST. These scales are outlined in Guidelines for the Psychosocially Assisted Pharmacological Treatment of Opioid Dependence, World Health Organization, Geneva (2009), Annex 10, which is incorporated herein by reference in its entirety. The scales measure the intensity of withdrawal symptoms, based on clinical, subjective, and objective indicia.

[9] = system: healthy, drug-free male volunteers; assay: Cold pressor test (analgesic effect) in healthy volunteers; assay type: in vivo, human
Description: Analgesic effect was assessed based on duration of hand immersion in ice water and on visual analog scale (VAS) pain scores upon hand removal from the water bath.
as §2

[10] = after adjusting for baseline, p>0.9
[11] = opioid-dependent participants, 60, 120, 180 mg
[12] = opioid-dependent patients, single 60 mg noribogaine dose, N = 6
[13] = opioid-dependent patients, single 120 mg noribogaine dose, N = 6
[14] = opioid-dependent patients, single 180 mg noribogaine dose, N = 6

## CC[C@H]1CC2C[C@H]3c4[nH]c5ccc(O)cc5c4CCN(C2)C13 [noribogaine]
[1]
  maximum serum concentration (Cmax) versus dose: increased in a dose-dependent manner
[2]; [10]
  pupil diameter, each dose group vs placebo by ANOVA: no statistically significant differences
[2]; healthy volunteers, 3-60 mg single oral dose
  pupillary constriction: no evidence of pupillary constriction
[3]; 3 mg dose group, by two subjects
  adverse events reported: five
[3]; 10 mg dose group, single subject
  adverse events reported: one
[3]; 30 mg dose group, single subject
  adverse events reported: one
[3]; all adverse events of the study, all resolved prior to study completion
  intensity of adverse events: mild-moderate
[3]; healthy volunteers, 3 mg
  Adverse events: Mild: Dizziness; also recorded: Epistaxis; also recorded: Headache; also recorded: Back pain
  Adverse events: Moderate: Headache
[3]; healthy volunteers, 10 mg
  Adverse events: Mild: Headache
[3]; healthy volunteers, 30 mg
  Adverse events: Mild: Headache
[3]; healthy volunteers, 3-60 mg
  oximetry, capnography, respiratory rate: no changes in oximetry or capnography, or changes in respiratory rate
  vital signs and safety laboratory tests: no changes in vital signs or safety laboratory tests of note
[3]; healthy volunteers, at any time
  QTcF values: ≤ 500 ms
[3]; one subject dosed with 10 mg, single increase at 24 hours post-dosing
  increase in QTcF: > 60 ms
[4]; 120 mg
  time to resumption of opioid substitution therapy compared with 60 mg: significantly longer
[4]; 180 mg
  time to resumption of OST compared with untreated patients or 60 mg noribogaine: still longer
[4]; single 60 mg dosing
  therapeutic response: generally does not provide a meaningful therapeutic response
[4]; single 120 mg dosing
  therapeutic response: generally provides a meaningful therapeutic response
[4]; single 120 mg dose
  average time to resumption of opioids: greater than 20 hours
[5]; single oral 3 mg noribogaine
  CL/F: 41.4 (7.0) L/h
[5]; single oral 10 mg noribogaine
  CL/F: 42.3 (12.0) L/h
[5]; single oral 30 mg noribogaine
  CL/F: 46.9 (16.4) L/h
[5]; single oral 60 mg noribogaine
  CL/F: 34.0 (11.4) L/h
[5]; healthy volunteers, 3-60 mg
  dose-proportionality of Cmax and AUC: increased linearly with dose
[5]; healthy volunteers, across 3-60 mg dose groups
  time of peak concentrations after oral dosing: 2 to 3 h
[5]; healthy volunteers, across dose groups
  mean half-life estimates: 28 to 50 h
[5]; single dose of 3 mg noribogaine free base
  mean AUC/24 hr: 3.1 ng/mL
[5]; single dose of 10 mg noribogaine free base
  mean AUC/24 hr: 10.6 ng/mL
[5]; single dose of 30 mg noribogaine free base
  mean AUC/24: 29.2 ng/mL
[5]; single dose of 60 mg noribogaine free base
  mean AUC/24: 61 ng/mL
[6]; 60 mg noribogaine treatment group
  headaches: frequent
[6]; 120 mg dose group
  headaches: attenuated
[6]; 180 mg dose group
  headaches: attenuated
[6]; [11]
  adverse effects observed: Few adverse effects
  hallucinatory effects: no hallucinatory effects
[6]; [12]
  Treatment emergent adverse events: Catheter Site Infection: 0
  Treatment emergent adverse events: Catheter Site Pain: 0
  Treatment emergent adverse events: Catheter Site Related Reaction: 0
  Treatment emergent adverse events: Cellulitis: 0
  Treatment emergent adverse events: Diarrhoea: 0
  Treatment emergent adverse events: Dry Mouth: 0
  Treatment emergent adverse events: Ear and Labyrinth Disorders: 0
  Treatment emergent adverse events: Epistaxis: 0
  Treatment emergent adverse events: Euphoric Mood: 0
  Treatment emergent adverse events: General Disorders and Administration Site Conditions: 0
  Treatment emergent adverse events: Hyperaesthesia: 0
  Treatment emergent adverse events: Infections and Infestations: 0
  Treatment emergent adverse events: Limb Discomfort: 0
  Treatment emergent adverse events: Malaise: 0
  Treatment emergent adverse events: Nausea: 0
  Treatment emergent adverse events: Oropharyngeal Pain: 0
  Treatment emergent adverse events: Pseudoparalysis: 0
  Treatment emergent adverse events: Respiratory, Thoracic and Mediastinal Disorders: 0
  Treatment emergent adverse events: Rhinorrhoea: 0
  Treatment emergent adverse events: Skin Discomfort: 0
  Treatment emergent adverse events: Skin Irritation: 0
  Treatment emergent adverse events: Skin and Subcutaneous Tissue Disorders: 0
  Treatment emergent adverse events: Somnoience: 0
  Treatment emergent adverse events: Tinnitus: 0
  Treatment emergent adverse events: Tremor: 0
  Treatment emergent adverse events: Urinary Tract Infection: 0
  Treatment emergent adverse events: Vomiting: 0
[6]; [13]
  Treatment emergent adverse events: Back Pain: 0
  Treatment emergent adverse events: Catheter Site Infection: 0
  Treatment emergent adverse events: Catheter Site Related Reaction: 0
  Treatment emergent adverse events: Depressed Mood: 0
  Treatment emergent adverse events: Dry Eye: 0
  Treatment emergent adverse events: Dyspepsia: 0
  Treatment emergent adverse events: Euphoric Mood: 0
  Treatment emergent adverse events: Limb Discomfort: 0
  Treatment emergent adverse events: Malaise: 0
  Treatment emergent adverse events: Musculoskeletal and Connective Tissue Disorders: 0
  Treatment emergent adverse events: Psychiatric Disorders: 0
  Treatment emergent adverse events: Somnoience: 0
  Treatment emergent adverse events: Urinary Tract Infection: 0
[6]; [14]
  Treatment emergent adverse events: Catheter Site Infection: 0
  Treatment emergent adverse events: Catheter Site Pain: 0
  Treatment emergent adverse events: Depressed Mood: 0
  Treatment emergent adverse events: Diarrhoea: 0
  Treatment emergent adverse events: Dry Eye: 0
  Treatment emergent adverse events: Dyspepsia: 0
  Treatment emergent adverse events: Ear and Labyrinth Disorders: 0
  Treatment emergent adverse events: Epistaxis: 0
  Treatment emergent adverse events: Euphoric Mood: 0
  Treatment emergent adverse events: Hyperaesthesia: 0
  Treatment emergent adverse events: Malaise: 0
  Treatment emergent adverse events: Oropharyngeal Pain: 0
  Treatment emergent adverse events: Pseudoparalysis: 0
  Treatment emergent adverse events: Psychiatric Disorders: 0
  Treatment emergent adverse events: Respiratory, Thoracic and Mediastinal Disorders: 0
  Treatment emergent adverse events: Rhinorrhoea: 0
  Treatment emergent adverse events: Skin Discomfort: 0
  Treatment emergent adverse events: Skin Irritation: 0
  Treatment emergent adverse events: Skin and Subcutaneous Tissue Disorders: 0
  Treatment emergent adverse events: Somnoience: 0
  Treatment emergent adverse events: Tinnitus: 0
  Treatment emergent adverse events: Tremor: 0
[7]; 60, 120, 180 mg, first 24 hours post administration
  QT interval prolongation (ΔQTcl) versus dose and serum concentration: dose-dependent increase in QT interval prolongation
[7]; doubling the dose gives about a doubling of the prolongation
  relation of QT interval prolongation to dose: linear pattern
[7]; patients receiving 120 mg
  QT interval in some patients: greater than 500 ms
  QT interval prolongation in some patients: greater than 50 ms
  average QT interval prolongation: approximately 38 ms
[8]; 120 mg
  withdrawal symptoms (COWS, OOWS, SOWS): generally experienced fewer withdrawal symptoms than the other patients
[8]; 60, 120, 180 mg
  withdrawal symptoms compared with placebo (COWS, OOWS, SOWS): Patients administered placebo generally experienced more withdrawal symptoms than patients who were administered noribogaine
[9]; after adjusting for baseline, p=0.17
  VAS pain scores, each dose group vs placebo by ANOVA: no statistically significant differences
[9]; [10]
  duration of hand immersion, each dose group vs placebo by ANOVA: no statistically significant differences
[9]; healthy volunteers, 3-60 mg single oral dose, 1° C. water
  analgesic effect in the cold pressor test: no analgesic effect
